Patent EP0499162A2, “GM-CSF inhibiting oligopeptides” (Bristol-Myers Squibb Company, priority 1991, dated 1992)
Where no end group is shown, it is not given here.

System: GM-CSF
Test: GM-CSF activity on bone marrow precursors (liquid culture, methylene blue dye absorbance of adherent granulocytes and macrophages)
Type: cell-based, murine
Settings: at any of the test concentrations (Figure 2)
Experimental: To determine the effect of the desired inhibitory oligopeptide, the following assay, using murine bone marrow precursors, was developed. Of course, if using an oligopeptide derivable from a species other than murine, substitution of cells from that species into the assay procedure would be required.
The biological activity of GM-CSF was determined in a liquid culture system of murine bone marrow cells (see, e.g., I. Bursuker, et al., J. Reticuloendothelial Soc., 25, 533 (1979)). Bone marrow cells were collected from femurs and tibia of 10 to 12 week old CB6F1 (C57BLxBalb/c) male mice (Harlan-Sprague Dawley, Inc., Indianapolis, Indiana) by flushing dissected and clean bones with phosphate buffered saline ("PBS", GIBCO, Grand Island, New York). Viable cell count was determined using trypan blue. The cells then were plated (1 ml/well; 2 X 10^5 cells/ml) in 24-well tissue culture plates (Costar, Cambridge, MA). Granulocyte-macrophage colony stimulating factor ("GM-CSF"; 2 ng/ml; recombinantly produced and available from PeproTech, Inc., Rocky Hill, NJ) and the desired oligopeptide were added at the desired concentration to the wells. […] The dye absorbance was measured at 620 nm in a MCC/340 Titertech Multiscan plate reader (Eflab, Helsinki, Finland). The dye absorbance reading is proportional to the number of cells in the culture.

For “YYQTYCPPTPETD [Oligopeptide P96-109, oligopeptide spanning a region of the murine GM-CSF molecule, 13 amino acids]”, the “effect on the biological activity of GM-CSF” value was “did not affect”.
